Assay results reported in ChEMBL document CHEMBL3286123, “Aliphatic phenolic ethers from Trichobotrys effusa” (2014).

System: A549
Experiment: Growth inhibition of human A549 cells after 48 hrs by SRB assay
Type: functional
Settings: A549, 48 h

| Structure (SMILES) | GI50 |
| --- | --- |
| C/C=C/C=C/C=C1\[C@H](OC)O[C@](C)(OC)[C@H]1OCc1c(O)cccc1CCC | 16.2 µM |
| O=c1[nH]cc(F)c(=O)[nH]1 [FLUOROURACIL] | 4.55 µM |
| C/C=C/C=C/C=C1\CO[C@](C)(OC)[C@H]1OCc1c(O)cccc1CCC | 24.3 µM |
| C/C=C/C=C/C=C(\CO)[C@H](OCc1c(O)cccc1CCC)[C@H](C)O | 25.6 µM |
| C/C=C/C=C/C=C(\C=O)C(OCc1c(O)cccc1CCC)C(C)=O (stereo unspecified) | 19.3 µM |
| C[C@@H]1C[C@H]2O[C@@H]2/C=C\C=C\C(=O)Cc2c(Cl)c(O)cc(O)c2C(=O)O1 [RADICICOL] | 1.43 µM |
